Experimental data as given in patent publication US12466816B2, “Fused cyclic compound capable of degrading protein and use thereof” (Medshine Discovery Inc., priority 2019, dated 2025).

Columns and labels:
Assay type in all cases: cell-based
U87-MG cells = assay: Drug synergism experiment with DNA damaging agents (CCK-8); details: 10 μM WX106, low concentrations of agent, 72 hours
Protocol: U87-MG cells were treated with WX106 and DNA damaging agents, temozolomide, cisplatin, and gemcitabine for 72 hours, respectively, and the proliferation level of cells was detected by CCK-8. Among them, the WX106 concentration was 10 μM, and the DNA damaging agent concentrations were 0.1 μM, 1 μM and 10 μM, respectively.

SNU182 = assay: Cell growth competition experiment with Poma (CCK-8); details: 1, 10 and 50 μM Poma with 10 μM WX106, 72 hours
Protocol: (§1) Principle: It is known that Poma is a compound that binds to CRBN, and Poma has no obvious inhibitory effect on adherent cells. If a compound depends on CRBN to inhibit cell growth, Poma's competitive binding to CRBN will definitely affect the cytotoxic effect of this compound. Cells were treated with 1, 10 and 50 μM of Poma and 10 μM of WX106 for 72 hours; cell viability was detected using the CCK-8 kit and cell survival rate was calculated [based on the formula], cell survival rate=[(As −Ab)/(Ac−Ab)]×100% (where As represents the absorbance of the experimental wells, Ac represents the absorbance of the control wells, and Ab represents the absorbance of the blank wells); finally, the effect of the competitive binding of Poma on the cytotoxicity of WX106 was calculated to determine whether the cytotoxicity of WX106 is dependent on CRBN. This step was applied to both SUN182 and Hep3B cells.
CC885 was the positive control in this experiment and is known to kill tumor cells in a CRBN-dependent manner.

Hep3B cells = assay: as above; details: 1, 10 and 50 μM Poma with 10 μM WX106, 72 hours
Protocol: as §1

CRBN = CRBN (Homo sapiens, UniProt Q96SW2); assay: Protein degradation competition experiment (CC885-induced GSPT1 degradation); parameters: endogenous in cells; host or cells: MOLT-4; details: MOLT-4 cells, co-treated with 10 nM CC885, 4 hours, Western blot
Protocol: MOLT-4 cells were co-treated with 0.1, 1 and 10 μM of WX106 and 10 nM of CC885 for 4 hours, and the protein level of GSPT1 was then detected by Western blot, with Poma (Pomalidomide, Selleck, S1567) acting as the positive control in the experiment. Cells were collected and denatured in protein loading buffer (50 mM Tris-HCL 2% SDS, 0.025% BPB, 1% β-mercaptoethanol, 10% glycerol) at 98° C. for 10 min. Proteins were separated by SDS-PAGE and transferred to a PVDF membrane (Millipore, IPVH00010), blocked with 5% skim milk (dissolved in TBST buffer), incubated with a primary antibody overnight at 4° C., and then incubated with a secondary antibody (Anti-rabbit IgG, HRP-linked Antibody, Cell Signaling, 7074S) at room temperature for 1 hour, and the bands on the membrane were detected by chemiluminescence (ECL chemiluminescence kit, Beyotime Biotechnology, P0018AM).

Wee1 = Wee1 (Homo sapiens, UniProt P30291); assay: Detection of compounds that degrade Wee1 protein (Western blot); parameters: endogenous in cells; host or cells: MOLT-4, U87-MG; details: MOLT-4 cells 10 μM 4 hours; U87-MG cells 1 μM 24 hours
Protocol: MOLT-4 cells were treated with 10 μM of the test compound for 4 hours and U87-MG cells were treated with 1 μM of the test compound for 24 hours, respectively. With GAPDH (Santa Cruz, sc-32233) as the internal reference protein, the protein level of Wee1 (Cell Signaling, 13084S) was detected using Western blot. Cells were collected, lysed with protein loading buffer (1M Tris-HCl, 10% SDS, 0.025% BPB), and denatured at 98° C. for 10 min before Western blot analysis. The main steps include: 1) Electrophoresis: The protein was separated by SDS-PAGE electrophoresis. During the electrophoresis, the voltage was adjusted to 80 v for about 30 min, and then the voltage was adjusted to 120 v until the bromophenol blue ran out of the gel. 2) Transfer to a membrane: the gel was stuck to a methanol-activated PVDF membrane using the method of wet transfer, and after the top and bottom layers were wrapped with filter paper, the membrane was placed into the gel holder cassette and fixed to the transfer tank, and transfer was performed at a constant current of 250 mA for 90 min; 3) Blocking: the PVDF membrane with trace protein was placed into the antibody incubation box, 5% skim milk was added to completely cover the PVDF membrane, and incubation was performed for 1 hour on a shaker at room temperature; 4) Incubation of the primary antibody: the primary antibody was prepared with 5% BSA (1:1000) and incubated overnight on a shaker at 4° C.; 5) Incubation of the secondary antibody: the membrane was washed thrice with TBST, the secondary antibody (prepared with 5% skim milk) was added (according to the species source of the primary antibody, different secondary antibodies with a dilution range of 1:3000-1:10000 were used), and incubation was performed on a shaker at room temperature for one hour; 5) Exposure: the membrane was washed thrice with TBST and the bands on the membrane were detected by chemiluminescence.

SMILES	pro-degradation effect on Wee1 (Wee1)	also measured
N.N.[Cl][Pt][Cl] [Cisplatin, cisplatin]		proliferation of U87-MG cells, DNA damaging agent at low concentrations in combination with WX106 (U87-MG cells): significantly inhibit the proliferation of U87-MG cells
Nc1cccc2c1C(=O)N(C1CCC(=O)NC1=O)C2=O (stereo not shown) [Poma, Pomalidomide]		effect of Poma on the cytotoxicity caused by WX106 (SNU182): capable of competitively inhibiting the cytotoxicity caused by WX106; effect of Poma on the cytotoxicity caused by WX106 (Hep3B cells): capable of competitively inhibiting the cytotoxicity caused by WX106; effect on degradation of GSPT1 induced by CC885 (CRBN): could inhibit the pro-degradation of GSPT1 by CC885
O=C1CCC(c2coc3ccc(NC(=O)c4ccnc(C(F)(F)F)c4)cc23)C(=O)N1 (stereo not shown) [WX002]	pro-degradation effect on Wee1	
Cc1ccc(C(=O)Nc2ccc3occ(C4CCC(=O)NC4=O)c3c2)cc1 (stereo not shown) [WX003]	pro-degradation effect on Wee1	
O=C1CCC(c2coc3ccc(NC(=O)c4cccc(Cl)c4)cc23)C(=O)N1 (stereo not shown) [WX004]	pro-degradation effect on Wee1	
O=C1CCC(c2coc3ccc(NC(=O)c4ccccc4)cc23)C(=O)N1 (stereo not shown) [WX005]	pro-degradation effect on Wee1	
CCCC(=O)Nc1ccc2occ(C3CCC(=O)NC3=O)c2c1 (stereo not shown) [WX006]	pro-degradation effect on Wee1	
Nc1ccn([C@@H]2O[C@H](CO)[C@@H](O)C2(F)F)c(=O)n1 [gemcitabine]		proliferation of U87-MG cells, DNA damaging agent at low concentrations in combination with WX106 (U87-MG cells): significantly inhibit the proliferation of U87-MG cells
